According to PubChem BioAssay (NCI):
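Grown in 96-well plates, cells were treated for 48 hours with each compound at five concentrations. Insufficient inhibition: endpoint recorded as highest concentration tested. GI50 marks 50% less growth. TGI is the concentration that stops growth completely.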

Tests used:
Assay in all cases: inhibition of tumour cell growth, NCI panel, 48 h
786-0 renal = system: 786-0 renal
A498 renal = system: A498 renal
A549 NSCLC = system: A549 NSCLC
ACHN renal = system: ACHN renal
BT-549 breast = system: BT-549 breast
CAKI-1 renal = system: CAKI-1 renal
CCRF-CEM leukemia = system: CCRF-CEM leukemia
COLO 205 colon = system: COLO 205 colon
DU-145 prostate = system: DU-145 prostate
EKVX NSCLC = system: EKVX NSCLC
HCC-2998 colon = system: HCC-2998 colon
HCT-116 colon = system: HCT-116 colon
HCT-15 colon = system: HCT-15 colon
HL-60(TB) leukemia = system: HL-60(TB) leukemia
HOP-62 NSCLC = system: HOP-62 NSCLC
HOP-92 NSCLC = system: HOP-92 NSCLC
HS 578T breast = system: HS 578T breast
HT29 colon = system: HT29 colon
IGROV1 ovarian = system: IGROV1 ovarian
KM12 colon = system: KM12 colon
LOX IMVI melanoma = system: LOX IMVI melanoma
M14 melanoma = system: M14 melanoma
MALME-3M melanoma = system: MALME-3M melanoma
MCF7 breast = system: MCF7 breast
MDA-MB-231 breast = system: MDA-MB-231 breast
MDA-MB-435 = system: MDA-MB-435
MOLT-4 leukemia = system: MOLT-4 leukemia
NCI-H226 lung = system: NCI-H226 lung
NCI-H23 lung = system: NCI-H23 lung
NCI-H460 lung = system: NCI-H460 lung
NCI-H522 lung = system: NCI-H522 lung
NCI/ADR-RES ovarian = system: NCI/ADR-RES ovarian
OVCAR-3 ovarian = system: OVCAR-3 ovarian
OVCAR-4 ovarian = system: OVCAR-4 ovarian
OVCAR-5 ovarian = system: OVCAR-5 ovarian
OVCAR-8 ovarian = system: OVCAR-8 ovarian
PC-3 prostate = system: PC-3 prostate
RPMI-8226 leukemia = system: RPMI-8226 leukemia
RXF 393 renal = system: RXF 393 renal
SF-268 CNS = system: SF-268 CNS
SF-295 CNS = system: SF-295 CNS
SF-539 CNS = system: SF-539 CNS
SK-MEL-2 melanoma = system: SK-MEL-2 melanoma
SK-MEL-28 melanoma = system: SK-MEL-28 melanoma
SK-MEL-5 melanoma = system: SK-MEL-5 melanoma
SK-OV-3 ovarian = system: SK-OV-3 ovarian
SN12C renal = system: SN12C renal
SNB-19 CNS = system: SNB-19 CNS
SNB-75 CNS = system: SNB-75 CNS
SR leukemia = system: SR leukemia
SW-620 colon = system: SW-620 colon
T-47D breast = system: T-47D breast
TK-10 renal = system: TK-10 renal
U251 CNS = system: U251 CNS
UACC-257 melanoma = system: UACC-257 melanoma
UACC-62 melanoma = system: UACC-62 melanoma
UO-31 renal = system: UO-31 renal

## FC(F)(F)c1ccc(NCc2nc3ccccc3[nH]2)cc1
786-0 renal
  GI50: 30.7 µM
  TGI: > 100 µM
A498 renal
  GI50: 12.4 µM
  TGI: 46.2 µM
A549 NSCLC
  GI50: 27.7 µM
  TGI: > 100 µM
ACHN renal
  GI50: 34.5 µM
  TGI: > 100 µM
BT-549 breast
  GI50: 31.1 µM
  TGI: 97.5 µM
CAKI-1 renal
  GI50: 19.4 µM
  TGI: 49.4 µM
CCRF-CEM leukemia
  GI50: 32.5 µM
  TGI: > 100 µM
COLO 205 colon
  GI50: 19.2 µM
  TGI: 34.3 µM
DU-145 prostate
  GI50: 47.9 µM
  TGI: > 100 µM
EKVX NSCLC
  GI50: 26.8 µM
  TGI: > 100 µM
HCC-2998 colon
  GI50: 23.8 µM
  TGI: 73.5 µM
HCT-116 colon
  GI50: 23 µM
  TGI: 68.7 µM
HCT-15 colon
  GI50: 32.7 µM
  TGI: > 100 µM
HL-60(TB) leukemia
  GI50: 12.1 µM
  TGI: 38.5 µM
HOP-62 NSCLC
  GI50: 28.8 µM
  TGI: 96.4 µM
HOP-92 NSCLC
  GI50: 12.9 µM
  TGI: 36.8 µM
HS 578T breast
  GI50: 23.3 µM
  TGI: 79 µM
HT29 colon
  GI50: 27.9 µM
  TGI: 81.3 µM
IGROV1 ovarian
  GI50: 39.9 µM
  TGI: > 100 µM
KM12 colon
  GI50: 29.7 µM
  TGI: 87.7 µM
LOX IMVI melanoma
  GI50: 23.2 µM
  TGI: > 100 µM
M14 melanoma
  GI50: 24.7 µM
  TGI: > 100 µM
MALME-3M melanoma
  GI50: 23.9 µM
  TGI: 69.5 µM
MCF7 breast
  GI50: 21.5 µM
  TGI: 53.2 µM
MDA-MB-231 breast
  GI50: 22.8 µM
  TGI: 78.2 µM
MDA-MB-435
  GI50: 22.4 µM
  TGI: 74.6 µM
MOLT-4 leukemia
  GI50: 21.6 µM
  TGI: 63 µM
NCI-H226 lung
  GI50: 26.1 µM
  TGI: > 100 µM
NCI-H23 lung
  GI50: 22.9 µM
  TGI: 80.2 µM
NCI-H460 lung
  GI50: 19.5 µM
  TGI: 47.7 µM
NCI-H522 lung
  GI50: 24.7 µM
  TGI: 95.3 µM
NCI/ADR-RES ovarian
  GI50: 21.9 µM
  TGI: 67.2 µM
OVCAR-3 ovarian
  GI50: 21.9 µM
  TGI: 62.2 µM
OVCAR-4 ovarian
  GI50: 27.1 µM
  TGI: > 100 µM
OVCAR-5 ovarian
  GI50: 27.8 µM
  TGI: 78.3 µM
OVCAR-8 ovarian
  GI50: 27.5 µM
  TGI: > 100 µM
PC-3 prostate
  GI50: 18.8 µM
  TGI: 75.8 µM
RPMI-8226 leukemia
  GI50: 20.7 µM
  TGI: 67.8 µM
RXF 393 renal
  GI50: 24.4 µM
  TGI: 81.9 µM
SF-268 CNS
  GI50: 40.8 µM
  TGI: > 100 µM
SF-295 CNS
  GI50: 18.7 µM
  TGI: 65.8 µM
SF-539 CNS
  GI50: 36.8 µM
  TGI: > 100 µM
SK-MEL-2 melanoma
  GI50: 20.7 µM
  TGI: 42.1 µM
SK-MEL-28 melanoma
  GI50: 27.9 µM
  TGI: > 100 µM
SK-MEL-5 melanoma
  GI50: 15.6 µM
  TGI: 30 µM
SK-OV-3 ovarian
  GI50: 45.5 µM
  TGI: > 100 µM
SN12C renal
  GI50: 29.7 µM
  TGI: > 100 µM
SNB-19 CNS
  GI50: 34.3 µM
  TGI: > 100 µM
SNB-75 CNS
  GI50: 23 µM
  TGI: > 100 µM
SR leukemia
  GI50: 28.3 µM
  TGI: > 100 µM
SW-620 colon
  GI50: 35.7 µM
  TGI: > 100 µM
T-47D breast
  GI50: 26.5 µM
  TGI: 80.6 µM
TK-10 renal
  GI50: 38.2 µM
  TGI: > 100 µM
U251 CNS
  GI50: 27.5 µM
  TGI: > 100 µM
UACC-257 melanoma
  GI50: 23.5 µM
  TGI: 67.9 µM
UACC-62 melanoma
  GI50: 18.7 µM
  TGI: 56.5 µM
UO-31 renal
  GI50: 30.4 µM
  TGI: > 100 µM
